These are literature values, as cited in patent publication US12059469B2, “Compositions and methods for wound treatment” (priority 2017, dated 2024).

Data set [1] relates to Wnt/β-catenin-mediated transcription. The note with it: through TNK 1 and 2 inhibition.
In the next data set the test system is mouse ear punch wound. The note with it: topical application, dissolved in DMSO.

Structures are written as SMILES. Where only a bound is given, the exact number is not on record here.

As a reminder, the aqueous solubility is the dissolved amount per volume that the medium holds. Turning to `Oc1nc(-c2ccc(C(F)(F)F)cc2)nc2c1CSCC2` [XAV939, 3,5,7,8-Tetrahydro-2-[4-(trifluoromethyl)phenyl]-4H-thiopyrano[4,3-d]pyrimidin-4-one], the aqueous solubility is under 1000 µg/mL. Further, in data set [1], the Wnt/β-catenin-mediated transcription result was “selectively inhibits”. In addition, in the data set with mouse ear punch wound, the “fibrosis (scarring)” value was “reduced fibrosis” and the “rate of wound closure” value was “significantly increased rate of wound closure”. The “effect on NF-κK” value in the data set on NF-κK is “does not affect”. In the data set with TGF-β, the “effect on TGF-β” value was “does not affect”. Further, the “effect on CRE” value with CRE was “does not affect”.
